Experimental data: the METLIN SMRT retention time set (Domingo-Almenara et al. 2019)

assay: gradient 5% acetonitrile 3 min, to 50% in 2 min, to 85% in 15 min, held 3 min, 100 µL/min; details: column: Zorbax Extend-C18 2.1 x 50 mm; eluents: water / acetonitrile, 0.1% formic acid
In short: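 Mixtures of ~100 pure standards were chromatographed on a Zorbax Extend-C18 column (2.1 × 50 mm, 1.8 μm) at 100 μL/min using water and acetonitrile, each with 0.1% formic acid. Detection used a quadrupole time-of-flight mass spectrometer in positive and negative ionization mode, and data collection spanned 3 months. Retention time was obtained from adduct peaks picked computationally and each checked manually.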

In order of falling RP-LC retention time:
1. Cn1nccc1-c1cccc(-c2noc(-c3cccc(Cl)c3)n2)c1  1260 s
2. CCc1ccc(-c2noc(Cn3c(=O)n(-c4ccc(OC)cc4)c(=O)c4sccc43)n2)cc1  1150 s
3. Cc1ccc(-c2nc(CN3C(=O)C(O)(c4ccccc4)c4ccccc43)c(C)o2)cc1 (stereo unspecified)  1120 s
4. CCc1ccc(Oc2cc(N3CCC(C(=O)NC4CCC(C)CC4)CC3)ncn2)cc1 (stereo unspecified)  1120 s
5. Cc1cccc(NC(=O)N2c3ccccc3CC2c2nc(C3CC3)no2)c1C (stereo unspecified)  1100 s
6. CCC(c1cccs1)N1C(=O)[C@H]2CN(S(=O)(=O)c3ccc(C)c(C)c3)C[C@H]2C1=O (stereo partly specified)  1070 s
7. Cc1cc(C)cc(Oc2nccn3c(=O)n(CC(=O)Nc4cc(Cl)ccc4C)nc23)c1  1050 s
8. CCOC(=O)c1cc2ccsc2n1CC(=O)NCc1ccc(C)cc1  981 s
9. COc1cc(NC(=O)Cc2csc3nc(-c4cccc(Br)c4)cn23)cc(OC)c1  974 s
10. Cc1cc(C)cc(Nc2nc(C)cc3nn(CC(=O)NC(C)C)c(=O)n23)c1  949 s
11. Cc1ccc(NC(=O)N2CCC(N3CCN(Cc4ccccc4)C3=O)CC2)cc1Cl  938 s
12. CCCc1noc(-c2ccc3nnc(CC(=O)Nc4ccc(C)cc4C)n3c2)n1  926 s
13. CC1CCN(C(=O)CN2C(=O)C3CCCCN3c3ccc(S(=O)(=O)N(C)C)cc32)CC1 (stereo unspecified)  910 s
14. CCOc1ccc(NS(=O)(=O)c2ccc3c(c2)C(=O)N(C)c2ncccc2O3)cc1  907 s
15. Cc1nc(-c2ccc(-c3noc(CNC(=O)c4ccccc4)n3)cc2)cs1  902 s
16. CC(C)N1C(=O)C(C)(C(=O)NCc2ccc3c(c2)OCO3)Oc2cccnc21 (stereo unspecified)  894 s
17. COC1C(=O)N(c2cccc(F)c2)C12CCN(C(=O)Nc1ccccc1F)CC2 (stereo unspecified)  890 s
18. Cn1c(C(=O)c2ccncc2)cc2ccccc21  881 s
19. CCOC(=O)c1ccc(-n2ccc3nc(C)c(C(=O)OC)cc3c2=O)cc1  874 s
20. Cc1nn2c(CNS(=O)(=O)c3ccc(F)cc3F)c(-c3ccccc3)nc2s1  867 s
21. COc1cc(C(=O)Nc2nc(-c3ccc4c(c3)NC(=O)CO4)c(C)s2)cc(OC)c1OC  860 s
22. CCn1nccc1-c1cccc(-c2noc(CNC(=O)Cc3ccccc3)n2)c1  855 s
23. CCn1nccc1C(=O)N1CCCC1c1ccc(Cl)cc1 (stereo unspecified)  850 s
24. CC(C)CNC(=O)N1CCc2nc(OCC3CC3)ccc2C1  848 s
25. Cc1ccc(F)c(NC(=O)Nc2ccc(-c3cccc4[nH]nc(N)c34)cc2)c1  845 s
26. Cn1c(=O)c(=O)n(C)c2cc(N3CCCCC3)c(NC(=O)c3ccco3)cc21  840 s
27. CCOC(=O)c1ccc(NS(=O)(=O)c2cc(-c3c(CC)noc3NC(C)=O)ccc2C)cc1  822 s
28. O=C(CSc1ccc(S(=O)(=O)c2ccccc2)nn1)Nc1ccc2c(c1)OCCO2  821 s
29. CCOc1ccc2nc(NC(=O)C3CCN(S(=O)(=O)c4cn(CC)cn4)CC3)sc2c1  809 s
30. COCCOCc1nc(C2CCN(S(=O)(=O)c3c(C)noc3C)CC2)no1  793 s
31. O=C(Nc1ccc2nc3n(c(=O)c2c1)CCCC3)Nc1ccc(Br)cc1F  782 s
32. CC(C)N1C(=O)C2(CCCC2)C1C(=O)N1CCc2ccccc21 (stereo unspecified)  780 s
33. CCN1C(=O)c2c(C(=O)NCc3ccccc3Cl)ncn2CC1(C)C(=O)NC1CCCC1 (stereo unspecified)  779 s
34. COC(=O)c1cc(OCC(=O)Nc2ccc3c(c2)OCO3)c2cc(F)ccc2n1  778 s
35. CCCNC(=O)N1CCCN(C2=NS(=O)(=O)C(c3cccc(Cl)c3)=C2C)CC1  775 s
36. CCN1c2ccccc2C(=O)NC12CCN(C(=O)c1cc(OC)cc(OC)c1)CC2  771 s
37. COc1ccc(C(=O)N2CCCn3nc(-c4cccs4)cc3C2)cn1  766 s
38. Cc1ccc2nc(-c3cc(Br)ccc3F)c(Nc3ccc4c(c3)OCO4)n2c1  762 s
39. CC1CCCCN1c1ccn2c(=O)n(CC(=O)Nc3ccc(F)cc3)nc2n1 (stereo unspecified)  759 s
40. OC(c1cc(C(F)(F)F)nc2c(C(F)(F)F)cccc12)C1CCCCN1 (stereo unspecified)  754 s
41. CCCCN1C(=O)CC2CCOC21C (stereo unspecified)  753 s
42. Cc1c(NC(=O)C(C)C)c(=O)n(-c2ccccc2)n1C  745 s
43. O=C(Cn1c(=O)c2cc(C3CC3)nn2c2ncccc21)Nc1ccc2c(c1)OCCO2  736 s
44. Cc1ccc(F)cc1S(=O)(=O)N1CCC(n2cnnc2C2CC2)CC1  734 s
45. CCCNC(=O)C1CCCN(c2nc3ncn(CC(=O)Nc4cccc(Cl)c4)c(=O)c3s2)C1 (stereo unspecified)  731 s
46. CCOC(=O)c1ccc(NC(=O)c2c(OC)cc(=O)n3c2CCCC3)cc1  718 s
47. COc1ccc(S(=O)(=O)NCc2cccnc2-c2ccc(F)cc2)cc1  714 s
48. Cc1nc(-c2ccccn2)cc2nn(CC(=O)NCCC(C)C)c(=O)n12  713 s
49. CCOc1ccc(NC(=O)N2CCC(c3nc(C(=O)N4CCOCC4)c(C)o3)CC2)cc1  704 s
50. O=S(=O)(NCC(c1ccco1)N1CCN(c2ccccc2F)CC1)c1cccs1 (stereo unspecified)  672 s
51. Cc1cc(NC(=O)c2ccco2)c2cc(F)cc(F)c2n1  668 s
52. COc1cccc(OC)c1C(=O)N1CCCC1c1c(C)noc1C (stereo unspecified)  665 s
53. O=C(Nc1ccc2c(N3CCCCC3)ncnc2c1)c1cncc(Br)c1  664 s
54. CCn1nccc1C(=O)Nc1cccc(-c2nnc3n2CCCC3)c1  644 s
55. O=C(Nc1cccc(-c2nnc3n2CCCC3)c1)c1ccoc1  640 s
56. CCc1nnc(-c2ccc3ccn(CC(=O)NCc4ccc(N(C)C)cc4)c3c2)o1  640 s
57. O=C(CNC(=O)c1ccc(F)c(F)c1)Nc1nc2ccccc2[nH]1  632 s
58. CC(C)N1CCN(S(=O)(=O)c2cc(-c3nnc(C4CCC4)o3)co2)CC1  622 s
59. Cn1c(CNC(=O)C2CCC2)nc2c1CN(S(=O)(=O)c1cccs1)CC2  617 s
60. COc1cccc(CN2CC(N(C3CCOCC3)S(C)(=O)=O)C2)c1  614 s
61. O=C(NCC1CCN(C2CCCC2)CC1)C(=O)Nc1ccc(OC(F)(F)F)cc1  611 s
62. CC1CCCCN1CCCNC(=O)Cn1c(=O)c2cccn2c2ccc(F)cc21 (stereo unspecified)  611 s
63. Cc1ccnc(NS(=O)(=O)c2ccc(NC(=O)C3=COCCO3)cc2)n1  603 s
64. Cc1nc(NCCNC(=O)c2cccs2)cc(N2CCCC2)n1  560 s
65. CCN(CC)CCCNC(=O)C(C)n1c2ccccc2c2cnn(C)c(=O)c21 (stereo unspecified)  559 s
66. CCNc1cc(N2CCC(CCC(=O)N3CCN(C(C)C)CC3)CC2)ncn1  524 s
